Test results published in ChEMBL document CHEMBL4017528, “Fragment-Based Discovery and Optimization of Enzyme Inhibitors by Docking of Commercial Chemical Space” (J Med Chem, 2017).

Columns and labels:
[1] = target: Oxidized purine nucleoside triphosphate hydrolase (Homo sapiens, UniProt P36639); assay: Inhibition of human recombinant His-tagged MTH1 expressed in Escherichia coli BL21 using dGTP as substrate after 15 mins by malachite green reagent-based assay
[2] = system: HeLa; assay: Cytotoxicity against human HeLa cells after 72 hrs by WST-8 assay; assay type: functional, cell-based

Structure (SMILES) | IC50 [1] | EC50 [2]
Nc1nc(SCCc2ccccc2)c2nc[nH]c2n1 | 0.17 µM | –
Cc1nc(N)nc2ccccc12 | 5.6 µM | –
Nc1nc(NCCc2ccccc2)c2nc[nH]c2n1 | – | 35 µM
CSc1nc2c(N)ncnc2[nH]1 | 24 µM | –
